The subject of assay [1] is rat primary septal neuron culture. Put plainly: Measurement of acetylcholine (ACh) release in the rat primary septal neuron culture system in the presence of NGF. It is filed as cell-based. The following applies: rat primary septal neurons, with NGF, one day after compound addition, HPLC. An excerpt:
Measurement of Acetylcholine (ACh) Release in the Rat Primary Septal Neuron Culture System in the Presence of NGF
(1) Rat Primary Septal Neuron Culture
The septal area was isolated from Sprague-Dawley (SD) rats (Charles River Laboratories Japan, Inc.) at a fetal age of 18 days, and cultured. Specifically, fetuses were aseptically removed from pregnant rats under isoflurane anesthesia. The brain was extracted from each fetus, and immersed in ice-cooled L-15 medium (11415-064. Thermo Fisher Scientific), The septal area was dissected from the extracted brain under a stereoscopic microscope. The dissected septal area was subjected to enzyme treatment in an enzyme solution containing 0.25% trypsin (15050-065. Thermo Fisher Scientific) and 0.01% DNase (D5025-1.50KU, Sigma) at 37° C. for 30 minutes, thereby dispersing the cells. In this case, the enzyme reaction was terminated by adding inactivated horse serum (26050-088. Thermo Fisher Scientific). The enzyme-treated solution was centrifuged at 1000 rpm for 3 minutes, and the supernatant was removed. A medium in an amount of 10 mL was added to the obtained cell mass. […]
One day after compound addition, an amount of ACh release was measured by HPLC in the following manner. […]

Assay [2] concerns Choline acetyltransferase (ChAT) mRNA. In words: Measurement of choline acetyltransferase (ChAT) mRNA expression levels in the rat septal area. It is filed as in vivo. The following applies: SD male rats, oral, 10 mg/kg, medial septum 24 hours after administration, qPCR. The procedure:
Measurement of Choline Acetyltransferase (ChAT) mRNA Expression Levels in the Rat Septal Area
(§1) (1) Compound Administration
In this study, SD male rats (Charles River Laboratories Japan, Inc. with a body weight of about 250 to 350 g were used. The compound was dissolved in 0.01 mol/L hydrochloric acid, and orally administered.
At 24 hours after the administration of the compound, the whole brain tissue was collected under pentobarbital anesthesia. The medial septum was isolated from whole brain on ice and frozen with liquid nitrogen, and them stored at −80° C.
(3) Measurement of ChAT […] Expression Levels
For RNA purification, RNeasy Plus Mini Kit (#74136: QIAGEN) was used in this study. RNA purification was performed by the method described in the kit, After RNA purification, the total RNA concentration was measured by using QIAxpert Instrument (QIAGEN). cDNA was synthesized using SuperScript® VILO™ cDNA. Synthesis Kit (#11754: Thermo Fisher Scientific). The synthesis of cDNA was performed by the method described in the kit. […] Quantitative polymerase chain reaction (qPCR) was conducted using ABI PRISM® 7900HT (Thermo Fisher Scientific) by a fluorescence probe method. […]
A general note: Real-time PCR tracks product formation cycle by cycle.

The subject of assay [3] is acetylcholine (ACh) in cerebrospinal fluid (CSF). Put plainly: Measurement of acetylcholine (ACh) in rat cerebrospinal fluid (CSF). The following applies: Fischer 344 male rats, oral once a day at 10 mg/kg for three days, CSF 24 hours after administration, LC-MS. It is filed as in vivo. The procedure:
Measurement of Acetylcholine (ACh) in Rat Cerebrospinal Fluid (CSF)
Thus, the changes in acetylcholine in CSF were measured in order to determine the changes in intracerebral acetylcholine by the test compounds.
(2) Compound Administration
In this study Fischer 344 male rats (Charles River Laboratories Japan, Inc.) with a body weight of about 150 to 250 g were used. The test compounds were orally administered to the rats once a day at 10 mg/kg for three days. The vehicle used was 0.01 mol/L hydrochloric acid.
At 24 hours after the administration of the vehicle and the test compounds, the CSF was collected from cisterna magna in a tube containing AchE inhibitors under pentobarbital anesthesia. The collected CSF was centrifuged at 3500×g at 4° C. for 10 minutes and the supernatant was collected. The collected supernatant was frozen with liquid nitrogen, and then stored at −80° C.
(4) Measurement of Ach by LC-MS
To 10 μL of the CSF was added 50 μL of acetylcholine-d9 chloride (ACh-d9) at a final concentration of 0.34 nmol/L as an internal standard. […] The supernatant was collected and subjected to LC/MS ([…]), and Ach was detected as precursor ion at m/z 146.050 and as product ion at m/z 87.071 and ACh-d9 as an internal standard was detected as precursor ion at m/z 155.088 and as product ion at m/z 87.000.

The subject of assay [4] is ChAT positive cells of the medial septal area. Put plainly: Evaluation in human tau P301S transgenic mouse (ChAT positive cells, medial septal area). To be noted: human tau P301S transgenic mice, oral once a day for three months (four- to seven-month-old), Dose: 5 mg/kg, mean±SEM, # significant vs vehicle (83.0 ± 5.8). It is filed as in vivo.
From the text: Evaluation in Human Tau P301S Transgenic Mouse
as §1
In this study, the test compounds were orally administered to human tau P301S transgenic mice once a day for three months from four-month-old to seven-month-old. The vehicle used was 0.01 mol/L hydrochloric acid.
At the initial day of the administration (four-month-old) and at the next day of the final administration, mice of vehicle administration group and test compound administration group were anesthetized under pentobarbital (50 mg/kg, i.p.) and perfused with PBS. After the perfusion, the forebrain including the medial septal area was collected and fixed with 4% parafomaldehyde.
(3) Preparation of Brain Coronal Frozen Section
The collected forebrain including the medial septal area was immersed and shaken overnight in 4% paraformaldehyde. […]
The prepared brain coronal frozen sections were stained with DAB (DAB PEROXIDASE SUBSTRATE KIT (Vector, SK-4100)) using a ChAT antibody (Santa Cruz, SC-20672) as a primary antibody. The section image including the medial septal area as shown in “The mouse Brain in stereotaxic coordinates” (COMPACT THIRD EDITION, Keith B. J. Franklin & George Paxinos) was taken by an all-in-one fluorescence microscope (KEYENCE, […]) and […] positive cells around the major axis of the medial septal area were counted by BZ analysis software (KEYENCE). […] Data are expressed as the mean±SEM. […]

The test system is the same in assay [5]. In words: Fimbria-fornix lesioned rat model: ChAT positive cells of the medial septal area. It is filed as in vivo. The following applies: fimbria-fornix lesioned rats, oral once a day after the operation, % of sham-operated group, mean±SEM, # significant vs vehicle (38.4 ± 5.0). The procedure:
(§2) Neuroprotective and Restorative Effect on Cholinergic Neurons Using Fimbria-Formix Lesioned Rat Model
(§3) (1) Preparation of Fimbria-Fornix Lesioned Rat Model
(§4) In this studs Sprague-Dawley male rats (Charles River Laboratories Japan, Inc.) with a body weight of about 250 to 350 g were used. The rat was anesthetized under the combination of three drugs: midazolam (2 mg/kg s.c.), medetomidine hydrochloride (0.15 mg/kg s.c.) and butorphanol tartrate (2.5 mg/kg s.c.) and fixed with a brain stereotaxis apparatus (Narishige Co., Ltd.). The cranial was exposed and a hole with 5 mm width was drilled in the skull from the median line 2 mm posterior to Bregma. A razor with 4 mm width was pierced into the Bregma in 5.5 mm depth to cut fimbria-fornix. […]
(§5) The prepared brain coronal frozen sections were stained with DAB (DAB PEROXIDASE SUBSTRATE KIT (Vector, SK-4100)) using a ChAT antibody (Santa Cruz, SC-20672) or a VAChT antibody (Merck Millipore, ABN100) as a primary antibody. The section image including the medial septal area or hippocampus as shown in “The mouse Brain in stereotaxic coordinates” (COMPACT THIRD EDITION, Keith B. J. Franklin & George Paxinos) was taken by an all-in-one fluorescence microscope (KEYENCE, BZ-X710) and ChAT positive cells of the medial septal area or optical density (OD) in hippocampal VAChT were measured by BZ analysis software (KEYENCE). […] Data are expressed as the mean±SEM. […]

Assay [6] deals with hippocampal vesicular acetylcholine transporter (VAChT). In words: Fimbria-fornix lesioned rat model: optical density in hippocampal VAChT. It is filed as in vivo. To be noted: fimbria-fornix lesioned rats, oral once a day after the operation, % of sham-operated group, mean±SEM, # significant vs vehicle (19.5 ± 6.4). The procedure: as §2, §3, §4, §5

Structures are written as SMILES.

Turning to `CN1CCc2c(sc3nc4n(c(=O)c23)-c2sccc2C(=O)N(C)C4)C1` [Reference Example 1, 5,10-dimethyl-5,6,9,10,11,12-hexahydropyrido[4″,3″:4′,5′]thieno[2′,3′:4,5]pyrimido[1,2-a]thieno[3,2-f][1,4]diazepine-4,13-dione], the “compound concentration showing a 20% increase from the ACh concentration in the buffer of the control group” value in assay [1] worked out at 0.1 µM. For the same compound, in assay [2], the “percentage of ChAT mRNA expression levels increased from the vehicle administration group” value stood at 56.4%. Besides, in assay [3], the “ACh concentration in CSF, percentage (% of control) versus vehicle administration group” value came out at 156.8%. Further, the “Ratio (%) of number of ChAT positive cells compared to that in the initial administration” value in assay [4] is given as 105.3 ± 4.3^# %. In assay [5], the “Number of ChAT positive cells (%) in test compound administration group” value is 74.1 ± 9.3^# %. The “OD in hippocampal VAChT (%) in test compound administration group” value in assay [6] is 66.1 ± 14.2^# %.
